The results in this text go back to US8993527B2, “Methods, compositions, and formulations for preventing or reducing adverse effects in a patient” (Pericor Therapeutics, Inc., priority 2005, dated 2015).

Data set [1] deals with T1, NBTI-specific adenosine transport site (UniProt O54698).
T1 sequence (O54698 1-457): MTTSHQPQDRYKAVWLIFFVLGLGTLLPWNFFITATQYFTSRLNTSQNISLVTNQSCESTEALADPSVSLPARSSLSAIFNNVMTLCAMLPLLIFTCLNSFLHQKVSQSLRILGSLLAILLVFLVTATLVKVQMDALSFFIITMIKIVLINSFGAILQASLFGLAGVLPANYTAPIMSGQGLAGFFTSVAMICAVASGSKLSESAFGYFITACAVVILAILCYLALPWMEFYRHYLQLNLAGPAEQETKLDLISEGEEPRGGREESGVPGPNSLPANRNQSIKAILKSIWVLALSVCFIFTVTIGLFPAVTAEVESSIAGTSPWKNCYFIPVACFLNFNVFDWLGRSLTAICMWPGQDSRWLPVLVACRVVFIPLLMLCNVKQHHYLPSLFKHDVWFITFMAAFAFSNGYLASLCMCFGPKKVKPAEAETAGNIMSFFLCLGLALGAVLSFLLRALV
As to the kind of experiment: [3H]-NBTI binding assay. The following applies: read-out: ED50 (50% displacement of bound [3H]-NBTI); 0.5 mg neuronal membrane protein, 0.5 nM [3H]-NBTI, 30 minutes. The procedure: Increasing concentrations of the test compounds were incubated for 30 minutes with 0.5 mg neuronal membrane protein together with 0.5 nM [^3 H]-NBTI in a Tris buffer (pH 7.4) at room temperature. The assays were quenched and membranes collected by rapid filtration. Filters were then solubilized and radioactivity determined by scintillation counting.

Data set [2] deals with platelet aggregation in human whole blood. As to the kind of experiment: Inhibition of platelet aggregation in human whole blood. It counts as cell-based. The following applies: Homo sapiens, Platelet, 10 min, 10 minutes at 37° C., 10 µM adenosine added, ADP (6-25 μM). The procedure: Whole blood was drawn from healthy donors and collected in 0.1 vol. of sodium citrate to prevent coagulation. Platelet aggregation was measured by the impedance technique using a Whole Blood Aggregometer. The test compounds were incubated in whole blood for 10 minutes at 37° C. and 10 µM adenosine was added 5 minutes before eliciting aggregation. Aggregation was induced by addition of ADP (6-25 μM) at the minimum concentration inducing full aggregation in untreated controls.

The target in data set [3] is T2, purified pig heart adenosine kinase (Sus scrofa, UniProt A0A5G2R0F5).
T2 construct: 0.1 μg of purified pig heart adenosine kinase; from tissue; host or cells: pig heart
As to the kind of experiment: Adenosine kinase activity. It counts as biochemical. The following applies: 0.5 μM [U14C] adenosine, 1 mM ATP, 20 minutes at 37° C. The procedure:
Inhibition of enzyme activity was determined using a 0.1 ml assay mixture containing 50 mM Tris-maleate, pH 7.0, 0.1% (w/v) BSA, 1 mM ATP, 1 mM MgCl2, 0.5 μM [U^14 C] adenosine (500 mCi/mmol) and 0.1 μg of purified pig heart adenosine kinase. Different concentrations of test compound were incubated in the assay mixture for 20 minutes at 37° C. From each reaction mixture, 20 μl portions were removed and spotted on 2^2 pieces of Whatman DE81 filter paper. The papers were then washed to remove [^14 C] adenosine in 1 mM ammonium formate followed by deionized water and finally 95% ethanol. The papers were dried, and [^14C] AMP measured by scintillation counting. Activities were determined from the amount of [^14C] AMP formed.

Data set [4] has as its system longitudinal muscle from the guinea pig ileum. The data set is described as follows: Inhibition of stimulated contraction in isolated ileum. The following applies: electrically stimulated guinea pig ileum muscle. An excerpt:
These are detailed in Table II.

Data set [5] has as its target T3, calf intestinal musosa adenosine deaminase (Bos taurus, UniProt P56658).
T3 construct: 0.002 units of calf intestinal musosa adenosine deaminase; from tissue; host or cells: calf intestinal mucosa
As to the kind of experiment: Adenosine deaminase activity. It counts as biochemical. The following applies: 80 μM adenosine, 10 minutes at 37° C. The procedure:
Different concentrations of the test compounds were incubated in the assay mixture for 10 minutes at 37° C. The reaction was monitored continuously for oxidation of NADH from the change in absorbance at 340 nm.

The subject of another data set is AMP deaminase. The data set is described as follows: Inhibition of AMP deaminase (14C-AMP to 14C-IMP). It counts as biochemical, human. The following applies: 200 μM of each ribotide. Here is the method:
The phosphorylated forms are referred to as AICA ribotide and ribavirin monophosphate, respectively. Using 200 μM of each ribotide, AMP deaminase was inhibited 38% and 54%, respectively.

In data set [6] the test system is granulocytes and endothelial cells. As to the kind of experiment: Granulocyte/endothelial cell interaction, intravital microscopy of mesentery microvessels. The following applies: superfusion with 20 μM, approximately 2 μM in the vessel. It counts as in vivo, rat. Here is the method:
The parameter measured was the fracture stress between the two cell types.
These studies were performed by intravital microscopy filming of granulocytes in rat mesentary microvessels. The rolling velocity of granulocytes compared to the streaming velocity of red cells was calculated before and after the administration of adenosine.

Another data set relates to brain ischemia. The data set is described as follows: Gerbil stroke model: hippocampal pyramidal cell survival. It counts as in vivo. The following applies: pretreatment with 500 mg/kg (FIG. 21). Here is the method: Ischemia was then induced by bilateral occlusion of both common carotid arteries for 5 minutes. Seven days following the ischemic insult, brains were removed and processed for histology.

The test system of the next data set is ischemic rat hearts. The data set is described as follows: Rat heart ischemia model: tissue adenosine levels. It counts as in vivo. Here is the method: Male rats were injected intraperitonealy with either the AICA riboside analog, AICA riboside or saline, as a control. After 60 minutes, the hearts were excised and incubated at 37° C. for a further 60 minutes. Tissue extracts were prepared and analyzed for adenosine by high performance liquid chromatography (HPLC).

Data set [7] in a line: Oral bioavailability and half-life in fasted adult beagles. It counts as in vivo, dog. The procedure: Heparinized blood and urine were collected at selected intervals over 24 hours. Each sample was chilled, centrifuged at 4° C. and frozen prior to HPLC analysis.
Data set [8] deals with coronary endothelial cells. As to the kind of experiment: Inhibition of adenosine utilization in cell culture. The following applies: Endothelial cell, 1 μM [3H] adenosine, 15 minutes. It counts as cell-based. Here is the method:
In this assay, endothelial cells were incubated with 5 μM or 50 μM of the test compound together with 1 μM [^3H] adenosine for 15 minutes. Inhibition of adenosine utilization was determined by measuring the concentration of extracellular adenosine by scintillation counting following separation by thin layer chromatography (TLC).

For the next data set, the system named is demand-induced ischemia. The data set is described as follows: Canine model of stable angina (repeated pacing with LAD stenosis). It counts as in vivo, dog. The procedure:
Anesthetized male dogs were instrumented to measure regional myocardial wall thickening during right atrial pacing in the presence of a stenosis of the left anterior descending artery (Young & Mullane Am. J. Physiol. in press (1991)). In Table XIA, the effects on wall thickening and arterial pressure of six repeated episodes of pacing in animals treated with a continuous IV infusion of 50 μg/kg/min of the test compound administered post-pace #1 are compared with saline-treated control animals.

Data set [9] relates to Mouse bone marrow-derived mast cells. The data set is described as follows: Ribavirin: mast cell β-hexosaminidase release.

Each structure is given as a SMILES string. Counter-ions that a name gives are not always drawn.

T2 sequence (A0A5G2R0F5 1-362): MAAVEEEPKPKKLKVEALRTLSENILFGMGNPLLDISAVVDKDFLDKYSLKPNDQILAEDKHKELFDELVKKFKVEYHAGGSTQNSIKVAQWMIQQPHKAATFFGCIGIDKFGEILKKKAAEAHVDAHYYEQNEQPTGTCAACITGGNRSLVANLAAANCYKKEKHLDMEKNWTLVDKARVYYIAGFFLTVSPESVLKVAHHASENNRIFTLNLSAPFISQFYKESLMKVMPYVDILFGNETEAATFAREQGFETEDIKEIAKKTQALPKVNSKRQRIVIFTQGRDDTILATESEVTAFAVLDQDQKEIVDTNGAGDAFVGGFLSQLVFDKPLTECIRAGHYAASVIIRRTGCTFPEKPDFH
T3 sequence (P56658 whole entry): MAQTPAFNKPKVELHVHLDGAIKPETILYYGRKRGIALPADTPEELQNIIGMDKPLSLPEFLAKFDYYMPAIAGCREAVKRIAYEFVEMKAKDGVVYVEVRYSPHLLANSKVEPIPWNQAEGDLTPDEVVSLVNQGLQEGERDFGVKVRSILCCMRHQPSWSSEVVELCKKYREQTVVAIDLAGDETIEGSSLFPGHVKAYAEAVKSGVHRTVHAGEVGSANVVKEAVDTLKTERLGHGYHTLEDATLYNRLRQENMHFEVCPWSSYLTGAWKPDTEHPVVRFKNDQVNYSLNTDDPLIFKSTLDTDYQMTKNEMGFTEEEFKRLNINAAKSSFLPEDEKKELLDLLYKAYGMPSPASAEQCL

Consider `NC(=O)c1nc(S)n([C@@H]2O[C@H](CO)[C@@H](O)[C@H]2O)c1N` [27 (1-395), 5-amino-2-thio-1-β-D-ribofuranosyl imidazole-4-carboxamide], for which the melting point lay in the range of 205 to 208 °C. The EC50 in [1] amounted to 344 µM. Moreover, inhibition in data set [2] was half-maximal at 950 µM (IC50). It took 8 µM to reach half-maximal inhibition in [3] (IC50). In addition, the half-maximal inhibitory concentration (IC50) in data set [4] (Cavia porcellus) worked out at 500 µM.
In [5], `CCCCO[C@@H]1[C@H](O)[C@@H](CO)O[C@H]1n1cnc(C(N)=O)c1N` [32 (1-262), 5-amino-1-(2-O-n-butyl-β-D-ribofuranosyl)imidazole-4-carboxamide] had an IC50 of 175 µM.
As to `NC(=O)c1ncn([C@@H]2O[C@H](COP(=O)(O)O)[C@@H](O)[C@H]2O)c1N` [AICA ribotide], the AMP deaminase inhibited in the data set with AMP deaminase is 38%.
Regarding `Nc1ncnc2c1ncn2[C@@H]1O[C@H](CO)[C@@H](O)[C@H]1O` [Adenosine, 9-β-D-ribofuranosyladenine], the “rolling velocity of granulocytes in microvessels” value in [6] is “twofold increase”.
Turning to `Nc1c(C(=O)NC2CCCC2)ncn1C1OC(CO)C(O)C1O` [Compound No. 10 (1-186), 5-Amino-1-beta-D-ribofuranosylimidazole-4-N-(cyclopentyl)carboxamide], the melting point was 158 to 160 °C. Moreover, the EC50 in [1] was determined as 350 µM. In the data set on brain ischemia, the “effect in a gerbil model of brain ischemia” value was “demonstrated protective effects”.
Take `Nc1c(C(=O)NCc2ccccc2)ncn1[C@@H]1O[C@H](CO)[C@@H](O)[C@H]1O` [Compound No. 11 (1-226), 5-Amino-1-beta-D-ribofuranosylimidazole-4-N-(benzyl)carboxamide]: the “Tissue Adenosine Levels (% Increase vs. Saline)” value with ischemic rat hearts (Expt 1) came out at 53%; in the data set with ischemic rat hearts (Expt 2), 45%. For the same molecule, it took 200 µM to reach half-maximal inhibition in data set [4] (IC50). For the same molecule, in the data set on brain ischemia, the “effect in a gerbil model of brain ischemia” value is given as “demonstrated protective effects”.
As for `NC[C@H]1O[C@@H](n2cnc(C(N)=O)c2N)[C@H](O)[C@@H]1O` [Compound No. 21 (1-227), 5′-Amino-5′-deoxy-AICA-riboside], in [7], the “Half Life” value came to 1.30 h. Further, the “Absolute Oral Bioavailability %” value in [7] (10 mg/kg IV bolus and 20 mg/kg via stomach tube) is recorded as 71 ± 13 (n = 2) %. Half-maximal inhibition in [4] (IC50) required 800 µM.
In the case of `NC[C@H]1O[C@@H](n2cnc(C(=O)NCc3ccc(Cl)cc3)c2N)[C@H](O)[C@@H]1O` [Compound No. 53 (1-468), 5-Amino-1-(5-amino-5-deoxy-β-D-ribofuranosyl)imidazole-4-N-[(4-chlorophenyl)methyl]carboxamide Hydrochloride], the inhibition at 5 µM in [8] (5 μM) worked out at 34 ± 4%. In data set [8] (50 μM), this molecule gave an inhibition at 50 µM of 58 ± 2%. Also, the EC50 in [1] is approximately 100 µM. Moreover, the IC50 in data set [2] was found to be 150 µM; in [4] (Cavia porcellus) it was 70 µM. The molecule further had a half-life in data set [7] (beagle, dog, in vivo) of 5.61 h. For the same molecule, the bioavailability in data set [7] (beagle, dog, in vivo, po, 10 mg/kg IV bolus and 20 mg/kg via stomach tube, read-out: Absolute Oral Bioavailability %) is 32 ± 11%. In addition, the “Heart Rate” value in the data set with demand-induced ischemia (Baseline) is reported as 143 ± 6 beats/min. Besides, in the data set on demand-induced ischemia (Baseline), the “Mean Arterial Pressure” value came out at 86 ± 5 mm Hg. The “% of NON-ISCHEMIC WALL THICKENING” value came to 49.5 ± 6.5% in the data set on demand-induced ischemia (Pace # 1 (before infusion), 50 μg/kg/min IV post-pace #1); 46.7 ± 7.0% in the data set on demand-induced ischemia (Pace # 2); 54.2 ± 9.4 % with demand-induced ischemia (Pace # 3); 48.1 ± 7.6 % in the data set on demand-induced ischemia (Pace # 4); 47.5 ± 8.2 % with demand-induced ischemia (Pace # 5); 42.1 ± 7.0 % in the data set on demand-induced ischemia (Pace # 6). Also, the “Heart Rate, Change from Baseline” value in the data set on demand-induced ischemia (Post Pace Rest Period 1) was 1 ± 2 beats/min; in the data set on demand-induced ischemia (Post Pace Rest Period 2), −2 ± 4 beats/min; in the data set with demand-induced ischemia (Post Pace Rest Period 3) it was −1 ± 3 beats/min; in the data set on demand-induced ischemia (Post Pace Rest Period 4), 2 ± 4 beats/min; with demand-induced ischemia (Post Pace Rest Period 5), 1 ± 4 beats/min; in the data set with demand-induced ischemia (Post Pace Rest Period 6), 2 ± 4 beats/min. For the same molecule, the “Mean Arterial Pressure, Change from Baseline” value in the data set on demand-induced ischemia (Post Pace Rest Period 1) was −1 ± 3 mm Hg; in the data set on demand-induced ischemia (Post Pace Rest Period 2) it was −2 ± 3 mm Hg; in the data set on demand-induced ischemia (Post Pace Rest Period 3) it was −8 ± 3 mm Hg; in the data set on demand-induced ischemia (Post Pace Rest Period 4), −7 ± 3 mm Hg; with demand-induced ischemia (Post Pace Rest Period 5), −8 ± 3 mm Hg; in the data set with demand-induced ischemia (Post Pace Rest Period 6) it was −7 ± 3 mm Hg.
Molecule `NC(=O)c1ncn([C@@H]2O[C@H](COP(=O)(O)O)[C@@H](O)[C@H]2O)n1` [ribavirin monophosphate] returned an AMP deaminase inhibited with AMP deaminase of 54%.
For `NC(=O)c1ncn([C@@H]2O[C@H](CO)[C@@H](O)[C@H]2O)n1` [ribavirin, 1-β-D-ribofuranosyl-1H-1,2,4-triazole-3-carboxamide], in data set [9] (1 μM for six days), the mediator release result is “inhibits mediator release significantly”. The β-hexosaminidase release entry in [9] (10 μM added at the time of mast cell stimulation) was “does not affect”; in data set [9] (three to seven days in 10 μM, washed, A23187 challenge), “marked attenuation”.

For orientation: IC50 means the concentration that inhibits the measured activity by half. A low value points to greater potency in that assay. Broadly, the melting point is the temperature of the solid-liquid transition. Broadly, the inhibition is how much of the control response was suppressed. A higher inhibition goes with a strong effect. The term half-life denotes the time in which the quantity being followed falls by half. A higher half-life goes with slow decline. Broadly, the bioavailability is the share of a dose that reaches the circulation, judged against a reference dose that is usually intravenous.
